In patent US5028411A, “Pharmaceutical compositions” (priority 1984, dated 1991):
Read-outs that look alike come from different tables or passages of the source.

Legend:
[1] = system: rat jejunal sac; test: In vitro permeation of rat jejunal sac by iron complexes
Protocol: Rats (male Sprague Dawley, 60 g) were killed and the jejunum removed, everted and cut into three segments (4 cm length). The segments were tied at both ends, filled with Krebs Ringer buffer (0.2 ml) and incubated in Krebs Ringer buffer containing the appropriate ^59 Fe compound at 37° C. for periods up to 90 minutes. The contents of the sac were counted for ^59 Fe and measured spectrophotometrically.

[2] = format: in vivo, cat
Protocol: (§1) Cats were anaesthetised with chloralase (60 mg/kg) and pentobarbitone sodium (60 mg/kg) (i.p.), having been kept free of food for 18 hours. In each animal the trachea was cannulated to maintain a clear airway and to allow positive pressure artificial respiration if necessary. The left femoral vien was cannulated for the intravenous administration of drugs and physiological saline solution. Arterial blood pressure was monitored by a Washington pressure transducer through a cannula inserted into the femoral artery of the right hind leg. Arterial blood samples were taken at appropriate intervals from a short cannula inserted into an external carotid artery. Body temperature was monitored with a rectal thermometer. Each animal was given heparin (1000 iu/kg) as anticoagulant and additional small amounts of pentabarbitone sodium if needed to maintain a satisfactory level of anaesthesia.
The apparent volume of distribution of the compound was calculated by extrapolation of the log-linear blood concentration curve to zero.
The amount of ^59 Fe administered in this experiment was 4 μCi of 2.2×10^6 cpm.

[3] = In vivo test of action of iron compounds in the rat (59Fe into duodenum)
Protocol: Groups of rats (300-350 g) were anaesthetised with nembutal (0.25 ml) and then with ether. A mid-line incision was made and the ^59 Fe labelled sample (100 μg Fe, 10 μCi) was passed into the lumen of the duodenum via a small incision. The abdominal well was then closed with a suture. The animals were sacrificed 1, 2, 4 and 6 hours after the administration of the compound and the various organs were monitored for their ^59 Fe content. […] In the case of the data for blood and sternum (bone marrow) the counts given are cpm/ml and cpm/g respectively, whilst in all other cases they are the total cpm counts.

[4] = In vivo cat, duodenal: 59Fe blood level and tissue distribution
Protocol: as §1
In those animals where the iron compounds were to be administered into the duodenum, a mid-line incision was made in the abdomen to reveal the intestines. A cannula was then inserted through a small cut such that its tip rested approximately 5 cm below the opening of the bile duct. The cannula was then sutured in place and the abdominal wall closed with stitches.
The distribution of ^59 Fe in the tissues of the animal after the same duodenal experiment to which FIG. 7 relates were investigated and the typical results are shown in Table 7. The amount of ^59 Fe administered in this experiment was 10 μCi or 5.327×10^6 cpm into a 2.9 kg cat. It will be seen that the distribution of the ^59 Fe after 4 hours was similar to that after intravenous infusion, with low levels in the kidney and urine and high levels in both the spleen and bone marrow.
The distribution of ^59 Fe in the tissues of the animal after the same duodenal experiment were investigated and the typical results are shown in Table 8. The amount of ^59 Fe administered in this experiment was 10 μCi or 2.65×10^6 cpm into a 2.9 kg cat. It will be seen that, although some ^59 Fe entered the tissues, rather low levels were detected in the spleen and bone marrow (sternum) whereas a large proportion of the dose was located in the urine.

[5] = system: rat jejunal sac; format: in vitro ADME, rat (male Sprague Dawley)
Excerpt: The procedure described above was used to compare the uptake of iron from buffer containing differing molar proportions of maltol:iron.

[6] = system: human erythrocytes; format: in vitro ADME; conditions: not told
Protocol: Following this period of incubation an aliquot of the erythrocyte/medium mixture was placed above a layer of silicone oil (.rho.=1.06) and the erythrocytes separated by centrifugation through the oil. The ^59 Fe levels associated with the erythrocytes and the incubation medium were then counted and presented as a distribution ratio (concentration in erythrocytes/concentration in medium).

[7] = system: erythrocyte ghosts; format: binding, human
Excerpt: Experiments to determine the percentage of ^59 Fe associated with erthrocyte ghosts after lysis confirm this hypothesis. In one experiment, lysis was initiated by a small volume of 10% v/v Triton X100 and in a second experiment by a 10 fold excess of water. […] Such binding is of course undesirable as the complex is likely to remain tightly bound to the membrane by electrostatic interactions and not be transmitted across it.

[8] = system: apotransferrin; test: Exchange of iron(III) between complex and apotransferrin
Excerpt: (§2) In order to solubilise iron(III) hydroxide, log Ksol must be greater than 0.

[9] = system: haemoglobin; test: Binding to haemoglobin by gel permeation elution profile of 59Fe; conditions: 1 mM complex, NaCl 130 mM, pH 7.4, PD-10 column
[10] = Protocol: An indication of the properties of a compound in this respect is provided by the value of the partition coefficient (Kpart) obtained on partition between n-octanol and Tris hydrochloride (20 mM, pH 7.4; Tris representing 2-amino-2-hydroxymethylpropane 1,3-diol) at 20° C. and expressed as the ratio (concentration of compound in organic phase)/(concentration of compound in aqueous phase).
Acid washed glassware is used throughout and, following mixing for 1 minute, the aqueous/n-octanol mixture is centrifuged at 1000 g for 30 seconds. The two resulting phases are separated for a concentration determination by spectrophotometry on each.

[11] = remark: listed apart in the source
Excerpt: as §2

[12] = system: bovine serum albumen (BSA); test: Binding to bovine serum albumen (BSA); conditions: column procedure as for haemoglobin
[13] = Affinity of maltol for copper (II), zinc (II), calcium and magnesium; format: physicochemical; conditions: compared with iron
Excerpt: as §2

[14] = Metabolism of free hydroxypyrone
[15] = relative to ferric chloride as 1, 37° C.
[16] = iron EDTA duodenal, 2.65×10^6 cpm
[17] = n-octanol/tris hcl, 100 µM, pH 7.4

## [Cl][Fe]([Cl])[Cl] [FeCl3, ferric chloride]
[1]; [15]
  Relative iron uptake, 15 minutes: 1
  Relative iron uptake, 60 minutes: 1

## O=C([O-])/C=C/C(=O)[O-].[Fe+2] [Fe^II fumarate]
[1]
  Relative iron uptake, 15 minutes: 4.0
  Relative iron uptake, 60 minutes: 1.8

## O=C([O-])CCC(=O)[O-].[Fe+2] [Fe^II succinate]
[1]
  Relative iron uptake, 15 minutes: 2.0
  Relative iron uptake, 60 minutes: 1.0

## O=S(=O)([O-])[O-].[Fe+2] [Fe^II sulphate, iron(II) sulphate]
[1]
  Relative iron uptake, 15 minutes: 2.4
  Relative iron uptake, 60 minutes: 1.4

## O=C([O-])CC(O)(CC(=O)[O-])C(=O)[O-].[Fe+3] [Fe^III citrate]
[1]
  Relative iron uptake, 15 minutes: 2.0
  Relative iron uptake, 60 minutes: 1.8

## O=C([O-])CN(CCN(CC(=O)[O-])CC(=O)[O-])CC(=O)[O-].[Fe+3] [Iron EDTA]
[2]; cat, in vivo, iv
  dose located in the urine: over 50%
  rate constant of the elimination from the blood of the linear phase: 0.023 min⁻¹
[2]; in vivo, iv
  Net 59Fe content, Heart: 209 cpm/g
  Net 59Fe content, Kidney: 1,134 cpm/g
  Net 59Fe content, Liver: 261 cpm/g
  Net 59Fe content, Spleen: 162 cpm/g
  Net 59Fe content, Sternum (bone marrow): 1,164 cpm/g
  Net 59Fe content, Urine: 62,156 cpm/g
  Net total 59Fe content, Heart: 3,248 cpm
  Net total 59Fe content, Kidney: 21,770 cpm
  Net total 59Fe content, Liver: 19,600 cpm
  Net total 59Fe content, Spleen: 1,814 cpm
  Net total 59Fe content, Urine: 1,180,900 cpm
  kinetics of loss of radioactivity from blood: at least a two-component process
[2]; iron EDTA i.v., adjusted to 2.2×10^6 cpm
  Net 59Fe content, Skeletal muscle: 95 cpm/g
[3]; 100 μg Fe
  59Fe levels in the intestine wall and blood: extremely low
[3]; 100 μg Fe, compared with maltol complex
  iron transfer to / 59Fe levels in bone marrow and spleen: reduced rates
[3]; 100 μg Fe, non-absorbed iron
  59Fe in gut washings: remain high for 4 hours
[4]; duodenal
  plasma levels of radioactivity: hardly exceeded the background level
[4]; [16]
  Net 59Fe content, Heart: 188 cpm/g
  Net 59Fe content, Kidney: 1,762 cpm/g
  Net 59Fe content, Liver: 499 cpm/g
  Net 59Fe content, Skeletal muscle: 117 cpm/g
  Net 59Fe content, Spleen: 200 cpm/g
  Net 59Fe content, Sternum (bone marrow): 917 cpm/g
  Net 59Fe content, Urine: 36,306 cpm/g
  Net total 59Fe content, Heart: 2,878 cpm
  Net total 59Fe content, Kidney: 19,913 cpm
  Net total 59Fe content, Liver: 29,574 cpm
  Net total 59Fe content, Spleen: 880 cpm
  Net total 59Fe content, Urine: 544,596 cpm

## Cc1occc(=O)c1[O-].Cc1occc(=O)c1[O-].Cc1occc(=O)c1[O-].[Fe+3] [Iron maltol]
[5]
  Iron uptake into serosal contents of the sac: 30.0 n mole
[5]; at 2:1 ratio of maltol:iron
  proportion of total iron present as 3:1 complex: 13%
[6]
  time for erythrocyte uptake to reach equilibrium: about 15 minutes
[7]
  Iron associated with ghosts, Hypotonic lysis: < 5%
  Iron associated with ghosts, Triton lysis: < 1%
[2]; cat, in vivo, iv
  59Fe directed to the bone marrow: approximately 90%
  dose located in combined tissue of heart, liver and spleen: approximately 10%
  dose located in the urine: less than 0.2%
[2]; in vivo, iv
  Net 59Fe content, Heart: 490 cpm/g
  Net 59Fe content, Kidney: 546 cpm/g
  Net 59Fe content, Liver: 510 cpm/g
  Net 59Fe content, Skeletal muscle: 0 cpm/g
  Net 59Fe content, Spleen: 14,890 cpm/g
  Net 59Fe content, Sternum (bone marrow): 3,200 cpm/g
  Net 59Fe content, Urine: 152 cpm/g
  Net total 59Fe content, Heart: 7,056 cpm
  Net total 59Fe content, Kidney: 6,661 cpm
  Net total 59Fe content, Liver: 53,550 cpm
  Net total 59Fe content, Skeletal muscle: 0 cpm
  Net total 59Fe content, Spleen: 125,076 cpm
  Net total 59Fe content, Urine: < 3,000 cpm
  apparent volume of distribution: a value between that of the total extracellular space of the animal and the blood volume
[8]
  lability of the complex: extremely labile
[9]
  binding to haemoglobin: no evidence is found for binding
[1]
  Relative iron uptake, 15 minutes: 40
  Relative iron uptake, 60 minutes: 5.8
  concentration range over which uptake increased linearly: 500 to 10000 µM
  period over which uptake was linear: 90 min
[10]; [17]
  partition coefficient Kpart (concentration in n-octanol/concentration in aqueous phase): 0.50
[11]
  thermodynamic stability constant: 30
[12]
  binding to bovine serum albumen: little ability to bind to BSA

## Cc1occc(=O)c1O [maltol, 3-hydroxy-2-methyl-4-pyrone]
[13]
  affinity for copper (II), zinc (II), calcium and magnesium: lower affinity
[14]
  metabolism: rapidly metabolized
[3]; 6 hour period
  deposition of iron in the bone marrow over time: continuously throughout the 6 hour period at an apparently constant rate
[10]; n-octanol/Tris hydrochloride 20 mM, pH 7.4, 10^-4 M, spectrophotometry
  partition coefficient Kpart (concentration in n-octanol/concentration in aqueous phase): 0.66
[11]
  affinity for iron (log β3): 30

## iron(II) gluconate [Fe^II gluconate]
[1]
  Relative iron uptake, 15 minutes: 1.6
  Relative iron uptake, 60 minutes: 0.8

## iron(III) ascorbate [Fe^III ascorbate]
[1]
  Relative iron uptake, 15 minutes: 0.4
  Relative iron uptake, 60 minutes: 0.8
[10]; [17]
  partition coefficient Kpart (concentration in n-octanol/concentration in aqueous phase): 0.0015
